{"source": "ChEMBL document CHEMBL1150977", "about": "“A quantitative analysis of kinase inhibitor selectivity” (Nat Biotechnol, 2008)", "key": {"[1]": {"target": "Macrophage colony-stimulating factor 1 receptor (Homo sapiens, UniProt P07333)", "sequence (P07333 whole entry)": "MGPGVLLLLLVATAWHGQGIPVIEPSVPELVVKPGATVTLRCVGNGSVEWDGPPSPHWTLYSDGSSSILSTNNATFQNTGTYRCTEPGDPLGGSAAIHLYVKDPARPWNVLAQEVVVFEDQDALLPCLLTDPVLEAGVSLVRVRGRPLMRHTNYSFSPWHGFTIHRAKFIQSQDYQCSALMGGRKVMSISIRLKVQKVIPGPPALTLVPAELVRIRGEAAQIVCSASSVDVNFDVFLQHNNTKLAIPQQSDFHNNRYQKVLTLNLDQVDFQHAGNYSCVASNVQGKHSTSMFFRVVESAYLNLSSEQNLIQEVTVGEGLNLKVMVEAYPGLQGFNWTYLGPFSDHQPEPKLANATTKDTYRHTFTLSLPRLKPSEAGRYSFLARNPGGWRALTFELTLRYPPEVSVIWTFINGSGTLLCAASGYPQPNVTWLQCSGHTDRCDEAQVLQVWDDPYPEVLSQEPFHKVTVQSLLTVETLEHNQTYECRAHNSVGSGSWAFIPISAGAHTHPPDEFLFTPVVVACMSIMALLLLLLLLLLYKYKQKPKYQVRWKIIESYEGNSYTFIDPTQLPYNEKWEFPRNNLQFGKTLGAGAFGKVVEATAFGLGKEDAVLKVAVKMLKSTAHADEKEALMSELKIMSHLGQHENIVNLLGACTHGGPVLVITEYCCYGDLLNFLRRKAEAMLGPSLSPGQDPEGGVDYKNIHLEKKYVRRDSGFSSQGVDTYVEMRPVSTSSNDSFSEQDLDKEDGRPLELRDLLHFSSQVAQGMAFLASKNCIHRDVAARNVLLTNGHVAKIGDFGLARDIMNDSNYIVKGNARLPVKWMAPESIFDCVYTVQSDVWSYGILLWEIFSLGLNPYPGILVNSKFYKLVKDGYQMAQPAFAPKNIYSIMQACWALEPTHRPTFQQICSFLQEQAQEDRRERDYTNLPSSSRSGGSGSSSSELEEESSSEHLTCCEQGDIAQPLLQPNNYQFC"}, "[2]": {"target": "Serine/threonine-protein kinase N1 (Homo sapiens, UniProt Q16512)", "sequence (Q16512 whole entry)": "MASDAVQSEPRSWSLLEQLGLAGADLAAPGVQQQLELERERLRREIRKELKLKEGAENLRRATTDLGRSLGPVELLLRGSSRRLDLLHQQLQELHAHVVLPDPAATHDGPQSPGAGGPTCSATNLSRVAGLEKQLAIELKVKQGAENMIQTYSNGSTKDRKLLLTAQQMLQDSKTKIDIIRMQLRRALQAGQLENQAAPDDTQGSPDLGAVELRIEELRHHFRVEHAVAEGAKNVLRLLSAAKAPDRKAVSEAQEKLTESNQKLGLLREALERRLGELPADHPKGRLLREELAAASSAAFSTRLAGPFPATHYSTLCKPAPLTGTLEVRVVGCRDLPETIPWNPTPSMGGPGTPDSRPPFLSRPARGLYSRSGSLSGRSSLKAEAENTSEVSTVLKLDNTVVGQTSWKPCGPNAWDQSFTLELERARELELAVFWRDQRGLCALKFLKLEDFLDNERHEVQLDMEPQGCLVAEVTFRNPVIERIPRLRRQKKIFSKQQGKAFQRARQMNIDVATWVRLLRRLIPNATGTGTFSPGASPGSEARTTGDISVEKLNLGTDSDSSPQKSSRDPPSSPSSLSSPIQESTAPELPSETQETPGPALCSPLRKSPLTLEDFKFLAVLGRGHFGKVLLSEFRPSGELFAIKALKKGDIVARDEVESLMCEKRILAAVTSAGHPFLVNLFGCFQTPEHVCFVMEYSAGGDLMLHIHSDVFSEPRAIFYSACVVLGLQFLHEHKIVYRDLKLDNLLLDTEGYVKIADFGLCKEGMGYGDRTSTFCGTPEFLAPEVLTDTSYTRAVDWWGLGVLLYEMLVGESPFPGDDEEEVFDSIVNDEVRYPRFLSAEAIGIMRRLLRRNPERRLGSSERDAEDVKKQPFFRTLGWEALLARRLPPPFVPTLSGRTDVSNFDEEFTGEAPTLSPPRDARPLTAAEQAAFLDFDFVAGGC"}, "[3]": {"target": "Mast/stem cell growth factor receptor Kit (Homo sapiens, UniProt P10721)"}, "[4]": {"target": "eIF-2-alpha kinase GCN2 (Homo sapiens, UniProt Q9P2K8, S808G)"}, "[5]": {"target": "Tyrosine-protein kinase Fer (Homo sapiens, UniProt P16591)", "sequence (P16591 whole entry)": "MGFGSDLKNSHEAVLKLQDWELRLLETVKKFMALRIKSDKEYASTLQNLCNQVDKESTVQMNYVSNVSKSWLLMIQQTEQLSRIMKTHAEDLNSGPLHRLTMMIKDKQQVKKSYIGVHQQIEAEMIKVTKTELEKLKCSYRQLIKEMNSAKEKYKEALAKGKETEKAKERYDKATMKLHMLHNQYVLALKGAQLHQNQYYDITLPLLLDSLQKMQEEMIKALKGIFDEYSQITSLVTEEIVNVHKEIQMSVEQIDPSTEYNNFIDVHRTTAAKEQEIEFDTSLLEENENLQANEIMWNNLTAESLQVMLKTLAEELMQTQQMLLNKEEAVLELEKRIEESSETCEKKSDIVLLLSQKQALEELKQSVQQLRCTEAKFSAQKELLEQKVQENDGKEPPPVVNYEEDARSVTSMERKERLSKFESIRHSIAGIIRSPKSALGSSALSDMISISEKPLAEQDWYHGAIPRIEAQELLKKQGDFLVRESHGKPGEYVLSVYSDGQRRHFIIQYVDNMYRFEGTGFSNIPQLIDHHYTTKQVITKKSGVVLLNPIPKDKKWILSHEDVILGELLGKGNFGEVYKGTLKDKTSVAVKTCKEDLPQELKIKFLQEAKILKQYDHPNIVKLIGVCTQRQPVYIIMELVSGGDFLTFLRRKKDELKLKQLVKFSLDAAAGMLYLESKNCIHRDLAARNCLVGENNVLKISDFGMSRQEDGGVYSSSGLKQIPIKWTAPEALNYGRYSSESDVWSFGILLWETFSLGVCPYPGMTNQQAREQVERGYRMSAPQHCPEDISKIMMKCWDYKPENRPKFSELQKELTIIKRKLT"}, "[6]": {"target": "T1, Serine/threonine-protein kinase D2 (Homo sapiens, UniProt Q9BZL6)", "T1 sequence (Q9BZL6 whole entry)": "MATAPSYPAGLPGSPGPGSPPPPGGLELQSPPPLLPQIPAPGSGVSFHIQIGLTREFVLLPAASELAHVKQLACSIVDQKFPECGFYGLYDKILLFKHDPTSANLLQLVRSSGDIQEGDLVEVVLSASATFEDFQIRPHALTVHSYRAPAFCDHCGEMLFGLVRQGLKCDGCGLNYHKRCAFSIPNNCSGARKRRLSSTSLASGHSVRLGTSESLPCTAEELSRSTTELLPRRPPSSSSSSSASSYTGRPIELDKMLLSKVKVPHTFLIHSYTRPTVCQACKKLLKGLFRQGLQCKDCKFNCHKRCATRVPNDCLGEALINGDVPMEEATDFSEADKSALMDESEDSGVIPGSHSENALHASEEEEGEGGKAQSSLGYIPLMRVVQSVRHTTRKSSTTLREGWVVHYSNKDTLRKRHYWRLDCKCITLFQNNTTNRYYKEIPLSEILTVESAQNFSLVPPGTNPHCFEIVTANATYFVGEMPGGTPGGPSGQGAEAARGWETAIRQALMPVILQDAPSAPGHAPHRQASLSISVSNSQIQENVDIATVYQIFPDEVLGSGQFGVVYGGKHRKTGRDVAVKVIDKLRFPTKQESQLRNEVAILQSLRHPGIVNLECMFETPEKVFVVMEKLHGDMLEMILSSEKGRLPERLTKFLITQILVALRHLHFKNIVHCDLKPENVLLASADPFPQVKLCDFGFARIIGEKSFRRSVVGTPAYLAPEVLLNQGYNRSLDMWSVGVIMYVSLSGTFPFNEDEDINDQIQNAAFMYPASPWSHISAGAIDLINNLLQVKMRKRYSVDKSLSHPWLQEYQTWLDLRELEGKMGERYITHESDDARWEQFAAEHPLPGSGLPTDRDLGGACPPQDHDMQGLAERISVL"}, "[7]": {"target": "Proto-oncogene tyrosine-protein kinase receptor Ret (Homo sapiens, UniProt P07949)", "sequence (P07949 whole entry)": "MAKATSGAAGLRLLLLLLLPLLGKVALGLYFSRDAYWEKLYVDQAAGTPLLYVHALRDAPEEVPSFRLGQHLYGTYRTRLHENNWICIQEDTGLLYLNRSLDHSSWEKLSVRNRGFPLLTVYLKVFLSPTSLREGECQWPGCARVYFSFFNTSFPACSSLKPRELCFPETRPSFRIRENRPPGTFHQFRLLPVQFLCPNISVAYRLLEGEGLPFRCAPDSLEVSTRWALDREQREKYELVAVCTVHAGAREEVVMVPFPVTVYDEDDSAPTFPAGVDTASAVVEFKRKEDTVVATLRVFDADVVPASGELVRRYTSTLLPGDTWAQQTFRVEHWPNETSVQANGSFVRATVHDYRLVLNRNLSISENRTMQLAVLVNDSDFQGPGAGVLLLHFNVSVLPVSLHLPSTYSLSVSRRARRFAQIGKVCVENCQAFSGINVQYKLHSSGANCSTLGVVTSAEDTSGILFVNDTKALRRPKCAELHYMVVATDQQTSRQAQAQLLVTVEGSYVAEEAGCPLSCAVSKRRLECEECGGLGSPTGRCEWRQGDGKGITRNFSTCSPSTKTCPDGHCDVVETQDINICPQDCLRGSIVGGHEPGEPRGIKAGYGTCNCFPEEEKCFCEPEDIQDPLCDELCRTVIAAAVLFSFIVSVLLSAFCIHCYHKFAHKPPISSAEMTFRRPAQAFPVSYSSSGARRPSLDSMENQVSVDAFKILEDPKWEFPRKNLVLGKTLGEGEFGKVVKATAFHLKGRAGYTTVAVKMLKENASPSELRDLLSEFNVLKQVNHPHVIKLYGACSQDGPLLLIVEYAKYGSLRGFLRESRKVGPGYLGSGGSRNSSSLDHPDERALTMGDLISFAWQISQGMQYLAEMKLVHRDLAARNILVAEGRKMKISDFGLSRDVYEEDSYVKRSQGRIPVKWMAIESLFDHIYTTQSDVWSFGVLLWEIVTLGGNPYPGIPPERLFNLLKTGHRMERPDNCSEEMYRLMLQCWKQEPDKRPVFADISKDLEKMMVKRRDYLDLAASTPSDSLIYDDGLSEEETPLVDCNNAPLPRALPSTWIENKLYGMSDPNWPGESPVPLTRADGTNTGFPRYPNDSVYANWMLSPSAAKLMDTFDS"}, "[8]": {"target": "LIM domain kinase 1 (Homo sapiens, UniProt P53667)"}, "[9]": {"target": "Serine/threonine-protein kinase PAK 6 (Homo sapiens, UniProt Q9NQU5)", "sequence (Q9NQU5 whole entry)": "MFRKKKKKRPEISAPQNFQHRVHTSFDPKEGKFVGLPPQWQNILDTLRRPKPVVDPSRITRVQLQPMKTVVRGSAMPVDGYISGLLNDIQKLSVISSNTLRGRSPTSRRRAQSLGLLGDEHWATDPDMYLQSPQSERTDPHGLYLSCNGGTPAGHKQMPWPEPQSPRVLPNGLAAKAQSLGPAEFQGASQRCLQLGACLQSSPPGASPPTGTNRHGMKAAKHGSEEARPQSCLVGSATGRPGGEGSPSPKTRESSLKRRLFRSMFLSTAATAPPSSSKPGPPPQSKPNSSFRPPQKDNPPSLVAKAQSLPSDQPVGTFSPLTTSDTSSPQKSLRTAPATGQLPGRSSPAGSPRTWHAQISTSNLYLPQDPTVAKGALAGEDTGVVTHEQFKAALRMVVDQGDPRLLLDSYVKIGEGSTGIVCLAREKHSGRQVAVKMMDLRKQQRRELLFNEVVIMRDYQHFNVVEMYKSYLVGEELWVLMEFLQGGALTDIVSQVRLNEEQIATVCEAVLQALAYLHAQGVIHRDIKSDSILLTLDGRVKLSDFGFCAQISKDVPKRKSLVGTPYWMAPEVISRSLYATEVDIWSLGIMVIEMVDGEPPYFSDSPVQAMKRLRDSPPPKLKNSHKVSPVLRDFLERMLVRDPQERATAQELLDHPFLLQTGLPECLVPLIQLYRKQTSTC"}, "[10]": {"target": "Serine/threonine-protein kinase 32B (Homo sapiens, UniProt Q9NY57)"}, "[11]": {"target": "Aurora kinase B (Homo sapiens, UniProt Q96GD4)"}, "[12]": {"target": "BDNF/NT-3 growth factors receptor (Homo sapiens, UniProt Q16620)"}, "[13]": {"target": "T2, Activin receptor type-1 (Homo sapiens, UniProt Q04771)", "T2 sequence (Q04771 whole entry)": "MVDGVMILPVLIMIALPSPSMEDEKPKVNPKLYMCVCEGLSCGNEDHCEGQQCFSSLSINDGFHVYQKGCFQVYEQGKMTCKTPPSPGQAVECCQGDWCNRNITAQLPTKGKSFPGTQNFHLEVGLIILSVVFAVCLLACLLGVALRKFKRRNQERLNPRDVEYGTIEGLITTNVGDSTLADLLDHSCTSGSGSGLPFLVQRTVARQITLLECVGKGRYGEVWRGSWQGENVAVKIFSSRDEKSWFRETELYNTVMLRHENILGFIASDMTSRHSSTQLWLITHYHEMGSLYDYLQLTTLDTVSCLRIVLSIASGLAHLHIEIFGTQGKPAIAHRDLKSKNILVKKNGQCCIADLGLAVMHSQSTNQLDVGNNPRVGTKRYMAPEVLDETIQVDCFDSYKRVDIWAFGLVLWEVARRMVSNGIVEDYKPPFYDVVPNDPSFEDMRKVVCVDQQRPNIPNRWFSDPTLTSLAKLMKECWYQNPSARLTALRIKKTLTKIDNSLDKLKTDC"}, "[14]": {"target": "Cyclin-dependent kinase 7 (Homo sapiens, UniProt P50613)", "sequence (P50613 whole entry)": "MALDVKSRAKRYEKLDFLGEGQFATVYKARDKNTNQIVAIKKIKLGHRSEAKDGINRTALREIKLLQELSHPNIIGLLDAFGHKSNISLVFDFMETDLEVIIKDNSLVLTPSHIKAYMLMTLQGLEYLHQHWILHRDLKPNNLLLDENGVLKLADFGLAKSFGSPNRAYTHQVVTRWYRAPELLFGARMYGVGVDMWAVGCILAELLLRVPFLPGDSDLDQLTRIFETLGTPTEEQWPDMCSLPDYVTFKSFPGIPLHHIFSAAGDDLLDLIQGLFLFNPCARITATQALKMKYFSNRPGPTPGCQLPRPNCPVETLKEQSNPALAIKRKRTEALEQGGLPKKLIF"}, "[15]": {"target": "T3, Mitogen-activated protein kinase kinase kinase kinase 3 (Homo sapiens, UniProt Q8IVH8)", "T3 sequence (Q8IVH8 whole entry)": "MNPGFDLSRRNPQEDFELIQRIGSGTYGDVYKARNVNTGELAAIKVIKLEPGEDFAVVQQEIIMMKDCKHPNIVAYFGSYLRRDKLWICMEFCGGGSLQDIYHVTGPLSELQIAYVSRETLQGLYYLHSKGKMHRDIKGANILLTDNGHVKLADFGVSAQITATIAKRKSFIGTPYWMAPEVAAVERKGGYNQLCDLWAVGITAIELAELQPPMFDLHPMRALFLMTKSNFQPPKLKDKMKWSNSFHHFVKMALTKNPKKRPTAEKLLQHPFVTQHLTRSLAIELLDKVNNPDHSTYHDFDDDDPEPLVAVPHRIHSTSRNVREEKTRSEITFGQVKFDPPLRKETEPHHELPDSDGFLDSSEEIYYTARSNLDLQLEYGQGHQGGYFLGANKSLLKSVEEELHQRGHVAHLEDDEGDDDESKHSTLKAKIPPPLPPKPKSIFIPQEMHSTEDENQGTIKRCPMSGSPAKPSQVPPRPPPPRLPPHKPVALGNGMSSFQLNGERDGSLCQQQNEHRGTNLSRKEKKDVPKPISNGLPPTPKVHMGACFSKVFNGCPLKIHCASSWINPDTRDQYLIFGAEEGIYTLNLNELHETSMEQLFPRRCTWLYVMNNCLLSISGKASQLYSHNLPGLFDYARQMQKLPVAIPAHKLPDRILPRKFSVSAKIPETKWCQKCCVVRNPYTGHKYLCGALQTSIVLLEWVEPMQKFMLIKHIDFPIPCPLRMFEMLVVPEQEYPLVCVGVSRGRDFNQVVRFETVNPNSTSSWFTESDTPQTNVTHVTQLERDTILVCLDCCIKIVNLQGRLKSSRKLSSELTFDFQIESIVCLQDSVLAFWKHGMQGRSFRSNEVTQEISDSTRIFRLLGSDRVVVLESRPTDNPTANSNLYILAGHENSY"}}, "data": [{"smiles": "COCC(=O)NC/C=C/c1ccc2ncnc(Nc3ccc(Oc4ccc(C)nc4)c(C)c3)c2c1", "note": "[CP-724714]", "values": [{"measurement": "Kd", "setting": "[1]", "result": "> 10", "unit": "µM"}, {"measurement": "Kd", "setting": "[2]", "result": "> 10", "unit": "µM"}, {"measurement": "Kd", "setting": "[3]", "result": "> 10", "unit": "µM"}, {"measurement": "Kd", "setting": "[4]", "result": "> 10", "unit": "µM"}, {"measurement": "Kd", "setting": "[5]", "result": "> 10", "unit": "µM"}, {"measurement": "Kd", "setting": "[6]", "result": "> 10", "unit": "µM"}, {"measurement": "Kd", "setting": "[7]", "result": "> 10", "unit": "µM"}, {"measurement": "Kd", "setting": "[8]", "result": "> 10", "unit": "µM"}, {"measurement": "Kd", "setting": "[9]", "result": "> 10", "unit": "µM"}, {"measurement": "Kd", "setting": "[10]", "result": "> 10", "unit": "µM"}, {"measurement": "Kd", "setting": "[11]", "result": "> 10", "unit": "µM"}, {"measurement": "Kd", "setting": "[12]", "result": "> 10", "unit": "µM"}, {"measurement": "Kd", "setting": "[13]", "result": "> 10", "unit": "µM"}, {"measurement": "Kd", "setting": "[14]", "result": "> 10", "unit": "µM"}, {"measurement": "Kd", "setting": "[15]", "result": "> 10", "unit": "µM"}]}, {"smiles": "CCOc1cc2ncc(C#N)c(Nc3ccc(F)c(Cl)c3)c2cc1NC(=O)/C=C/CN(C)C", "note": "[PELITINIB]", "values": [{"measurement": "Kd", "setting": "[2]", "result": "> 10", "unit": "µM"}, {"measurement": "Kd", "setting": "[3]", "result": "> 10", "unit": "µM"}, {"measurement": "Kd", "setting": "[4]", "result": 0.29, "unit": "µM"}, {"measurement": "Kd", "setting": "[5]", "result": 8.8, "unit": "µM"}, {"measurement": "Kd", "setting": "[6]", "result": "> 10", "unit": "µM"}, {"measurement": "Kd", "setting": "[7]", "result": "> 10", "unit": "µM"}, {"measurement": "Kd", "setting": "[8]", "result": "> 10", "unit": "µM"}, {"measurement": "Kd", "setting": "[9]", "result": "> 10", "unit": "µM"}, {"measurement": "Kd", "setting": "[10]", "result": 6, "unit": "µM"}, {"measurement": "Kd", "setting": "[11]", "result": "> 10", "unit": "µM"}, {"measurement": "Kd", "setting": "[12]", "result": "> 10", "unit": "µM"}, {"measurement": "Kd", "setting": "[13]", "result": "> 10", "unit": "µM"}, {"measurement": "Kd", "setting": "[14]", "result": "> 10", "unit": "µM"}]}, {"smiles": "NC(=O)c1ccc(-c2nc(-c3ccc4c(c3)OCO4)c(-c3ccccn3)[nH]2)cc1", "note": "[SB-431542]", "values": [{"measurement": "Kd", "setting": "[1]", "result": "> 10", "unit": "µM"}, {"measurement": "Kd", "setting": "[2]", "result": "> 10", "unit": "µM"}, {"measurement": "Kd", "setting": "[3]", "result": "> 10", "unit": "µM"}, {"measurement": "Kd", "setting": "[4]", "result": "> 10", "unit": "µM"}, {"measurement": "Kd", "setting": "[5]", "result": "> 10", "unit": "µM"}, {"measurement": "Kd", "setting": "[6]", "result": "> 10", "unit": "µM"}, {"measurement": "Kd", "setting": "[7]", "result": "> 10", "unit": "µM"}, {"measurement": "Kd", "setting": "[8]", "result": "> 10", "unit": "µM"}, {"measurement": "Kd", "setting": "[9]", "result": "> 10", "unit": "µM"}, {"measurement": "Kd", "setting": "[10]", "result": "> 10", "unit": "µM"}, {"measurement": "Kd", "setting": "[11]", "result": "> 10", "unit": "µM"}, {"measurement": "Kd", "setting": "[12]", "result": "> 10", "unit": "µM"}, {"measurement": "Kd", "setting": "[13]", "result": "> 10", "unit": "µM"}, {"measurement": "Kd", "setting": "[14]", "result": "> 10", "unit": "µM"}, {"measurement": "Kd", "setting": "[15]", "result": "> 10", "unit": "µM"}]}, {"smiles": "CCN1CCN(Cc2ccc(NC(=O)Nc3ccc(Oc4cc(NC)ncn4)cc3)cc2C(F)(F)F)CC1", "note": "[AST-487]", "values": [{"measurement": "Kd", "setting": "[8]", "result": "> 10", "unit": "µM"}, {"measurement": "Kd", "setting": "[11]", "result": "> 10", "unit": "µM"}]}, {"smiles": "Nc1nc(Nc2ccc(S(N)(=O)=O)cc2)nn1C(=O)c1c(F)cccc1F", "note": "[JNJ-7706621]", "values": [{"measurement": "Kd", "setting": "[2]", "result": "> 10", "unit": "µM"}, {"measurement": "Kd", "setting": "[4]", "result": 3.9, "unit": "µM"}, {"measurement": "Kd", "setting": "[5]", "result": "> 10", "unit": "µM"}, {"measurement": "Kd", "setting": "[6]", "result": "> 10", "unit": "µM"}, {"measurement": "Kd", "setting": "[10]", "result": "> 10", "unit": "µM"}, {"measurement": "Kd", "setting": "[12]", "result": "> 10", "unit": "µM"}]}, {"smiles": "Oc1ccc(-c2nc(-c3ccncc3)c(-c3ccc(F)cc3)[nH]2)cc1", "note": "[SB-202190]", "values": [{"measurement": "Kd", "setting": "[1]", "result": "> 10", "unit": "µM"}, {"measurement": "Kd", "setting": "[2]", "result": "> 10", "unit": "µM"}, {"measurement": "Kd", "setting": "[3]", "result": "> 10", "unit": "µM"}, {"measurement": "Kd", "setting": "[4]", "result": "> 10", "unit": "µM"}, {"measurement": "Kd", "setting": "[5]", "result": "> 10", "unit": "µM"}, {"measurement": "Kd", "setting": "[6]", "result": "> 10", "unit": "µM"}, {"measurement": "Kd", "setting": "[7]", "result": "> 10", "unit": "µM"}, {"measurement": "Kd", "setting": "[8]", "result": "> 10", "unit": "µM"}, {"measurement": "Kd", "setting": "[9]", "result": "> 10", "unit": "µM"}, {"measurement": "Kd", "setting": "[10]", "result": 4.9, "unit": "µM"}, {"measurement": "Kd", "setting": "[11]", "result": "> 10", "unit": "µM"}, {"measurement": "Kd", "setting": "[12]", "result": "> 10", "unit": "µM"}, {"measurement": "Kd", "setting": "[13]", "result": "> 10", "unit": "µM"}, {"measurement": "Kd", "setting": "[14]", "result": "> 10", "unit": "µM"}, {"measurement": "Kd", "setting": "[15]", "result": "> 10", "unit": "µM"}]}]}
